Results reported in patent US8377875B2, “Therapeutics based on tau/microtubule dynamics” (Ramot at Tel-Aviv University Ltd., priority 2007, dated 2013).
Each block holds one molecule with its values, some of them ahead of it. Ends that are not written are not given here.

Columns and labels:
[1] = system: mixed neuroglial cultures from newborn rat cortex; experiment: Neuroprotection against beta-amyloid 1-42 in mixed neuroglial cultures, MAP2 ELISA; assay type: cell-based; details: 0.25 μM beta-amyloid 1-42, 5 days, n=10 per data point
[2] = target: T1, tau-three microtubule binding domain repeats (Homo sapiens, UniProt P10636); experiment: Dot blot analysis of peptide binding to tau; details: peptide 10^−3M spotted, 2 μM tau
T1 construct: made in house
Procedure: For Dot Blot analysis, 5 μl of each sample [vasoactive intestinal peptide VIP (Dangoor et al., Regul Pept, 137: 42-49 (2006)); negative control and NAP 10^−3M) was applied onto the nitrocellulose membrane (Schleicher & Schuell, Dassel, Germany), and was left to dry (2 hr, room temperature). The membrane was further incubated with 2 μM tau-three microtubule binding domain repeats (1.5 hr, room temperature). The non-specific sites were blocked by soaking in a blocking solution (10 mM Tris, 6 mM NaCl, 0.05% Tween 20) that was supplemented with 5% low-fat milk (1 hr at room temperature). The membrane was incubated with primary antibody (tau5 antibody 1:1000), dissolved in 5% milk in blocking solution (12 hours at 4 C). The membrane was then washed three times with the blocking solution (3×10 min), incubated with secondary antibody conjugated with horseradish peroxidase (HRP) (1 hr at room temperature) and washed again three times with blocking solution (10 min×3). The membrane was incubated with ECL reagent (Western blotting detection system; Amersham Biosciences) for 1 min, covered and exposed Biomax Light Film (Kodak, Rochester, N.Y., USA). […]

[3] = system: tubulin tyrosination cycle in rat pheochromocytoma cells (PC12); experiment: Cell-based tubulin tyrosination cycle assay in PC12 cells (confocal microscopy, ELISA); details: 2 hr
From the text: Changes in the tubulin tyrosination cycle were used to study the effects of NAP on microtubule dynamics (Gozes and Littauer, Nature. 276:411-413 (1978)). This cycle includes the slow removal of the C-terminal tyrosine of microtubule alpha tubulin, resulting in Glu-tubulin and the fast re-addition of tyrosine (Tyr) to soluble alpha-tubulin in a reaction requiring ATP. […] A cell-based assay for anti-microtubule activity that relies on the properties above allows the identification of both microtubule-destabilizing and microtubule-stabilizing agents. The assay allows assessment of the relative degree of stable microtubule versus dynamic microtubules (Vassal et al., J Biomol Screen, 11: 377-389 (2006)) using confocal microscopy as well as quantitative Enzyme-Linked Immunosorbent Assay (ELISA).
Rat pheochromocytoma cells (PC12) were grown in Dulbecco's modified eagles medium (DMEM) supplemented with 5% fetal bovine serum and 10% donor horse serum 1% penicillin—streptomycin, 1% L-Glutamine (Beit Haemek, Israel) in an atmosphere of 5% CO2 and 95% air at 37° C. […] Cells were seeded on 96, 48 or 24 well plates in 100, 300 or 500 μl of medium volumes respectively and allowed to grow for 48 hr.
In short, medium was aspirated and cells were incubated for 3 min with 100, 300 or 500 μl warm MTSBT (Pipes pH 6.8 80 mM, EGTA 4 mM, MgCl2 1 mM, Triton X-100 0.5% v/v) buffer followed by 6 min with 100, 300 or 500 μl cold methanol (−20° C.). Blocking followed a re-hydration in cold TBST (NaCl 0.15 M, Tris-Cl pH 7.4, Triton X-100 0.1% v/v) followed by 5% non fat milk in TBST 10 min at room temp or −50 μg/ml of Goat IgG in AbDil [TBST+2% bovine serum albumin (Sigma, Rehovot Israel)] 10 min at room temp. For microtubule and nuclear staining, 50 μl (per well) of rat monocloncal antibodies detecting tyrosinated tubulin (YL1/2, Abcam, Cambridge, UK) and rabbit polyclonal antibodies detecting glutaminated tubulin (Abcam, Cambridge, UK) at 1:1000 dilution were added. After a 2 hr (37° C.) incubation the cells were washed twice with TBST or TBS and 50 μl per well of secondary goat anti-rat coupled by Cynine 3—Cy3 (1:1000), Cy2 goat anti rabbit (1:1000) (Jackson ImmunoResearch, West Grove, Pa., U.S.A), and Hoechst 33258 (Sigma) 1 μg/ml were added. Following one hour incubation at 37° C. and 3 washes in TBST or TBS, fluorescence was measured using Tecan Microplate fluorescent reader (Neoteck scientific instrumentation, Switzerland) infinite F200 and Magellan software version 6.3.
For visual inspection, cells were seeded on microscope cover slips, mounted on slides and inspected using confocal microscopy as before (Divinski et al. (2006)). […]

tau = tau (Homo sapiens, UniProt P10636); experiment: Affinity chromatography on NAP-affinity column with tau-specific western blot; assay type: binding
tubulin [4] = experiment: Microtubule pelleting assay, western blot with polyclonal tubulin antibodies; assay type: biochemical; details: NAP 1 pM, tubulin 10 μM, tau ~2.5 μM
Procedure: FIG. 9 illustrates the effect of NAP on tubulin precipitation (10 μM) with tau (2.5 μM) during microtubule (MT) assembly. The experiment was carried out as in FIG. 5, except that polyclonal tubulin antibodies were used. (Gozes et al., FEBS Lett. 73(1):109-14 (1977)).
Densitometric scanning of the western blots (e.g. FIG. 9) including 6 independent experiments are depicted on the figure. S=supernatant; P=pellet; western blot anti tubulin, 1:1, 400-2000.
(§1) Tubulin, tau and NAP were prepared as described in Example 1. The microtubule pelleting assay was also carried out as in Example 1.
(§2) The resulting pellet was subjected to 12.0% polyacrylamide gel containing SDS (Kar et al. (2003)). Gels were either stained for proteins (Coomassie Brilliant Blue) or subjected to western analysis to specifically identify and quantitate tubulin in the microtubule pellet. Three different antibodies were used, rabbit anti tubulin (Gozes et al. (1977)), mouse monoclonal antibodies that prefers neuronal beta tubulin species, TUB2.1 (Boss et al., Brain Res, 433:199-218 (1987); Gozes and Barnstable (1982)) and tubulin beta III (neuronal enriched) antibodies as before (Divinski et al. (2006)). Western blotting was performed as before (Divinski et al. (2006)).

[5] = system: closed head injury in mice; details: cited from earlier work
[6] = system: microtubules (tubulin and tau); experiment: Transmission electron microscopy of microtubules from mixtures of tubulin, tau and NAP; assay type: biochemical
Procedure: FIGS. 3A-E show electron microscopy studies were carried out on mixtures of tubulin, tau, and NAP. […] FIGS. 3A and 3C are 25,000× magnification; FIGS. 3B and 3D are 200,000× magnification. […] Additional electron microscopy studies were carried out on mixtures of NAP (1 pM, lanes 4,5,6. […]), tubulin 6 μM (lanes1,4, FIG. 3E) or 10 μM (lanes 2,3,5,6, FIG. 3E) and tau. Tubulin was obtained from Cytoskeleton (Denver, Colo., USA) and tau (0.7 μM) was purified from recombinant cDNA obtained from Professor Linda Amos (Kar et al., Embo J, 22: 70-77 (2003).). […] The box plot represents 3 different experiments (control vs. NAP-treated). Each experiment consists of either three or four repeats. P<0.001. The density of the microtubules was estimated by counting 20-23 fields in each of the experimental samples.
Transmission electron microscopy was carried out to identify and quantitate microtubule size and appearance in the presence and absence of NAP (in the microtubule pellets described above). Grids were stained with […].

NIH 3T3 fibroblasts = details: cited from earlier work
beta III tubulin = target: T2, beta III tubulin (Homo sapiens, UniProt Q13509); experiment: Microtubule pelleting assay, western blot with beta III tubulin antibodies; assay type: biochemical; details: NAP 1 pM, tubulin 10 μM, tau 2.5 μM; vs absence of NAP
T2 construct: purchased Cytoskeleton (Denver, Colo., USA)
Procedure: FIG. 7 illustrates the effect of NAP (1 pM) on beta III tubulin precipitation (10 μM) with tau (2.5 μM) during microtubule (MT) assembly. The experiment was carried out as in FIG. 5, except that beta III antibodies were used. S=supernatant; P=pellet. The reduction of beta III tubulin in the pellet was significant (P<0.05). Beta III tubulin is enriched in neurons (Banerjee et al., J. Biol. Chem. 265: 1794-1799 (1990); Joshi and Cleveland, Cell Motil. Cytoskeleton 16:159-163 (1990)).
Densitometric scanning of the western blots (e.g. FIG. 7) including 8 independent experiments are depicted on the figures. S=supernatant; P=pellet; western blot anti beta III tubulin, 1:1, 400. The reduction reached significance (*P<0.05).
as §1
The resulting pellet was subjected to 12.0% polyacrylamide gel containing SDS (Kar et al. (2003)). Gels were either stained for proteins (Coomassie Brilliant Blue) or subjected to western analysis to specifically identify and quantitate tubulin in the microtubule pellet. […]

tau hyperphosphorylation = details: animal models; cited from earlier work
beta tubulin = experiment: Microtubule pelleting assay, western blot with TUB2.1 beta tubulin antibody; assay type: biochemical; details: NAP 1 pM, tubulin 10 μM, tau ~2.5 μM; 6 independent experiments
Procedure: FIG. 5 illustrates the effect of NAP on beta tubulin precipitation (10 μM) with tau (2.5 μM) during microtubule (MT) assembly. NAP (1 pM) incubation apparently reduces beta tubulin in the microtubule pellet. The monoclonal antibody used (TUB2.1) interacts specifically with beta tubulin species. Gozes and Barnstable, Proc Natl Acad Sci USA, 79: 2579-2583 (1982). Blots were performed as before (Divinski et al., J Neurochem, 98: 973-984 (2006)). S=supernatant; P=pellet.
Densitometric scanning of the western blots (e.g. FIG. 5) including 6 independent experiments are depicted on the figure. S=supernatant; P=pellet; western blot antitubulin 2.1, 1:1, 400.
as §1
as §2, with “Western blotting was performed as before (Divinski et al. (2006)).” left out

[7] = in vivo; cited from earlier work
normal aging rats = details: intranasal administration; cited from earlier work
microtubule formation = details: cited from earlier work
[8] = system: MAP-2 expression in neuronal cells; details: cited from earlier work
[9] = system: model of fetal alcohol syndrome; details: in vivo, ip; cited from earlier work
cell cultures = details: cited from earlier work
tubulin [10] = details: cited from earlier work
ischemic injury = details: after ischemic injury; cited from earlier work
tubulin [11] = experiment: Tubulin-NAP binding

T1 sequence (P10636 1-410 isoform P10636-5): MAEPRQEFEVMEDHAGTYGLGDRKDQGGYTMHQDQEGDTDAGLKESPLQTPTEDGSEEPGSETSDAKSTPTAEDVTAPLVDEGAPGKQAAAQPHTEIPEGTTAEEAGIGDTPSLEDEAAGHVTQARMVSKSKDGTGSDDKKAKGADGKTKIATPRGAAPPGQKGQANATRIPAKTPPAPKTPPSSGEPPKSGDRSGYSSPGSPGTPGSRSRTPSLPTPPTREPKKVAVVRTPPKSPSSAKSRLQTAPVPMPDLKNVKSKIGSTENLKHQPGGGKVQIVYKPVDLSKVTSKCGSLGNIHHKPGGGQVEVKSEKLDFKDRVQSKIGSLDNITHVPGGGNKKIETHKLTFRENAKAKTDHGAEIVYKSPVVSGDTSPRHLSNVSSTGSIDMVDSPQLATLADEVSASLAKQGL
T2 sequence (Q13509 whole entry): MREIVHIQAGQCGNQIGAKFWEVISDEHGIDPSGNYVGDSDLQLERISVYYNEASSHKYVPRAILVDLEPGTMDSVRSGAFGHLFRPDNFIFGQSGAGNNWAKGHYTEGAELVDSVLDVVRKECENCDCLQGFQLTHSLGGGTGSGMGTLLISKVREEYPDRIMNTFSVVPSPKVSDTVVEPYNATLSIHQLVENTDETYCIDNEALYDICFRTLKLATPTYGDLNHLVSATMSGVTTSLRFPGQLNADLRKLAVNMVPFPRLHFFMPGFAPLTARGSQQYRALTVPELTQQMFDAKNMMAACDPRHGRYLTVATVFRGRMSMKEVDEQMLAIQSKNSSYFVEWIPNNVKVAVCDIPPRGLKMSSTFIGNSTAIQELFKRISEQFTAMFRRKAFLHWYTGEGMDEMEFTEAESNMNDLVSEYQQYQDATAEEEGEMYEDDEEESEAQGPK
T2 sequence (Q71U36 whole entry partner): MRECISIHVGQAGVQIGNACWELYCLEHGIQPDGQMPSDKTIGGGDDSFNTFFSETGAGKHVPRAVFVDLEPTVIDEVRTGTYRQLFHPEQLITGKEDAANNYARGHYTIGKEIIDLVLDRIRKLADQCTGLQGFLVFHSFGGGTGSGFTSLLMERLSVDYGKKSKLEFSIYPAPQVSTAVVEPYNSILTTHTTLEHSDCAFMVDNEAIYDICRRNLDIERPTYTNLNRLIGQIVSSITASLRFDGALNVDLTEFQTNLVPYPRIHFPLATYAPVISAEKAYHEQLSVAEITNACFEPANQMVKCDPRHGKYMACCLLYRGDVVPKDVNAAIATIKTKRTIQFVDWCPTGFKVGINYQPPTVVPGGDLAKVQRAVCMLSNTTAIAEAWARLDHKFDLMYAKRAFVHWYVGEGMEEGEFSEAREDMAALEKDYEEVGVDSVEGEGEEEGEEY
Chain of tau (P10636 1-441 isoform P10636-8): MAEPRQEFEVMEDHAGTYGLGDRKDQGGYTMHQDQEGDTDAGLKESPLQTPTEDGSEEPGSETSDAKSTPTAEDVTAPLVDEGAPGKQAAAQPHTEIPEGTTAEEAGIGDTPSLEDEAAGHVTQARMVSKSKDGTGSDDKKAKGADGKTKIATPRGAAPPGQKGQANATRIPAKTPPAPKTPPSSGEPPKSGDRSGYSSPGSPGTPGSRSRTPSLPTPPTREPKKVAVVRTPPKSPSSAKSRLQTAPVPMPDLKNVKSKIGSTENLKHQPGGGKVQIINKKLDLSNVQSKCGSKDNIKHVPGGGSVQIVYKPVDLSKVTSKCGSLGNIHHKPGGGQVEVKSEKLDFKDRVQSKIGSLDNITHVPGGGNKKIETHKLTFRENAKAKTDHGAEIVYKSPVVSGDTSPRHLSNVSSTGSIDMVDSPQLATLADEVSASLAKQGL

Molecule: TAPVPMPD [a NAP-like, tau-derived peptide]
concentrations at which neuronal survival was enhanced (MAP2 staining) [1]: 10^−19-10^−9 M

binding to tau (dot blot) [2]: does not interact
Molecule: vasoactive intestinal peptide [VIP, reference compound]

Molecule: CC(=O)O[C@H]1C(=O)[C@@]2(C)[C@H]([C@H](OC(=O)c3ccccc3)[C@]3(O)C[C@H](OC(=O)[C@H](O)[C@@H](NC(=O)c4ccccc4)c4ccccc4)C(C)=C1C3(C)C)[C@]1(OC(C)=O)CO[C@@H]1C[C@@H]2O [paclitaxel, reference compound]
detyrosinated tubulin ([3]; paclitaxel 5 μM): significantly increased detyrosinated tubulin

Molecule: Asn-Ala-Pro-Val-Ser-Ile-Pro-Gln [NAP]
binding to tau (affinity chromatography) (tau): binds to tau
decrease of tubulin in the microtubule pellet (polyclonal anti-tubulin antibodies) (tubulin [4]): no significant decrease
damage caused by closed head injury [5]: reducing damage
microtubule density (electron microscopy) ([6]; NAP 1 pM, tubulin 6 or 10 μM, tau 0.7 μM, vs control w/o NAP): increased microtubule density
curves and microtubule length (electron microscopy) ([6]; NAP-treated samples vs control w/o NAP): increases
interaction with NIH 3T3 fibroblasts or other dividing cells (NIH 3T3 fibroblasts): does not interact
decrease in tubulin beta III in the microtubule pellet (beta III tubulin): approximately 2 fold
tau hyperphosphorylation (tau hyperphosphorylation): protected against tau hyperphosphorylation
dose response for activation of the tyrosination cycle (ELISA) ([3]; 10^−19 M—10^−7M): biphasic dose response curve
activity on the tubulin tyrosination cycle ([3]; NAP 10^−11M): not active
tyrosinated and detyrosinated alpha tubulin ([3]; NAP 10^−15M): significantly increased tyrosinated and detyrosinated alpha tubulin
binding to tau (dot blot) [2]: can bind directly to tau
reduction of beta tubulin in the microtubule pellet (TUB2.1 antibody) (beta tubulin): not significant
crossing of the blood-brain barrier [7]: can cross the blood-brain barrier
performance in the Morris water maze (normal aging rats): improved performance
microtubule formation (turbidity) (microtubule formation): stimulate microtubule formation
MAP-2 expression [8]: increases MAP-2 expression
fetal death after intraperitoneal injection of alcohol [9]: inhibited
neuroprotective activity against a wide variety of toxins (cell cultures): neuroprotective activity at femtomolar concentrations
binding to tubulin (tubulin [10]): binds tubulin
infarct volume and motor function deficits (ischemic injury): reduced infarct volume and motor function deficits

effect on tubulin-NAP binding (tubulin [11]): diminish tubulin-NAP binding
Molecule: SALLRSIPA [ADNF-9]
